Measured values as given in the NIST ThermoML archive (doi:10.1016/j.fluid.2007.07.016).

Test: xn = mol fraction of the nth substance listed
Settings: 101 kPa, Liquid; for viscosity: Capillary tube (Ostwald / Ubbelohde) method; for speed of sound: Linear variable-path acoustic interferometer

Cc1cccc(C)c1 [1,3-dimethylbenzene] + C1CCOC1
Settings	speed of sound, 288.15 K [m/s]	speed of sound, 298.15 K [m/s]	speed of sound, 308.15 K [m/s]	speed of sound, 318.15 K [m/s]	viscosity, 288.15 K [mPa·s]	viscosity, 298.15 K [mPa·s]	viscosity, 308.15 K [mPa·s]	viscosity, 318.15 K [mPa·s]
x2 = 0	1373.2	1326.6	1281	1243	0.6696	0.588	0.5229	0.4684
x2 = 0.0722	1370.9	1324	1278.1	1239.4	0.6615	0.5823	0.5193	0.4668
x2 = 0.1486	1368.1	1321	1274.8	1235.5	0.6528	0.5762	0.5151	0.4647
x2 = 0.2134	1365.6	1318.4	1272.1	1232.2	0.6449	0.5703	0.511	0.4621
x2 = 0.2804	1362.9	1315.6	1269.2	1228.7	0.6363	0.5638	0.5061	0.4587
x2 = 0.3536	1359.7	1312.5	1265.9	1224.9	0.6263	0.556	0.4999	0.4542
x2 = 0.4255	1356.4	1309.3	1262.6	1221.1	0.616	0.5477	0.4932	0.4489
x2 = 0.4864	1353.5	1306.4	1259.7	1217.8	0.6068	0.5401	0.4869	0.4438
x2 = 0.5476	1350.5	1303.4	1256.6	1214.4	0.5971	0.5321	0.48	0.4382
x2 = 0.6041	1347.5	1300.5	1253.7	1211.1	0.5879	0.5243	0.4732	0.4323
x2 = 0.6751	1343.6	1296.7	1249.9	1206.9	0.5757	0.5139	0.464	0.4241
x2 = 0.7396	1339.8	1293.1	1246.4	1203.1	0.5642	0.5038	0.455	0.4162
x2 = 0.8005	1336.1	1289.6	1243	1199.5	0.5529	0.4939	0.446	0.408
x2 = 0.8722	1331.6	1285.4	1238.9	1195.1	0.5392	0.4817	0.4347	0.3974
x2 = 0.9378	1327.3	1281.4	1235.2	1191.1	0.5261	0.4699	0.4237	0.387
